Experimental findings from patent US8846845B2, “Bioabsorbable and biocompatible polyurethanes and polyamides for medical devices” (Bezwada Biomedical, LLC, priority 2005, dated 2014) are described below.

The structures appear in SMILES notation.

The series can be described thus: In vitro hydrolysis of functionalized phenolics in pH 7.4 buffer at reflux, monitored by TLC. In kind it is physicochemical. Conditions: reflux temp. (100° C.); 500 mg compound in 50 ml pH 7.4 buffer solution; TLC against original phenolic as control. How it is done: Selected compounds were examined for the rate of hydrolysis by conducting in vitro hydrolysis studies at reflux temp. (100° C.). For each experiment, 500 mg of a func-tionalized compound and 50 ml of pH 7.4 buffer solution (purchased from Aldrich Chemical) were charged into a 100 ml round bottom flask fitted with a condenser and the contents were refluxed. In vitro hydrolysis of the functionalized phenolics was monitored by thin layer chromatography (TLC) using corresponding starting material (original phenolic) as a control. In vitro hydrolysis was continued at reflux until the functionalized molecule hydrolyzed to the starting phenolic compound.

For `Nc1ccc(OCC(=O)OCCOC(=O)COc2ccc(N)cc2)cc1` [Example 25, (4-Amino-phenoxy)-acetic acid-2-[2-(4-amino-phenoxy)-acetoxy]-ethyl ester], the “time in which the functionalized compound was hydrolyzed to the starting phenolic compound” value (“time” below) came to 11.5 h.

Consider `CC(Oc1ccc(N)cc1)C(=O)OCCOC(=O)C(C)Oc1ccc(N)cc1` (stereo not shown) [Example 32, 2-(4-Aminophenoxy)-propionic acid 2-[2-(4-aminophenoxy)-propionyloxy]-ethyl ester], for which the “time” value was determined as 40 h.

For the molecule `COC(=O)COC(=O)COc1ccc(N)cc1` [Example 45, (4-Aminophenoxy)-acetic acid methoxycarbonylmethyl ester], the “time” value stood at 3 h.

As to `COC(=O)COC(=O)COc1ccc(NC(C)=O)cc1` [Example 48, (4-Acetylaminophenoxy)acetic acid methoxycarbonyl methyl ester], the “time” value is 8 h.
